Series [1] relates to Plasmodium falciparum. Briefly: Antiprotozoal activity against intraerythrocytic stage of chloroquine/pyrimethamine-resistant Plasmodium falciparum K1 by [3H]hypoxanthine incorporation assay. Type of series: functional, organism-based.
The subject of series [2] is Trypanosoma brucei rhodesiense. Briefly: Antiprotozoal activity against bloodstream form of Trypanosoma brucei rhodesiense STIB900 trypomastigote by alamar-blue assay. Type of series: functional, organism-based. On the technique in general: The colour change of resazurin is a common sign of viable cells or microbes.
The test system of the next series is Leishmania donovani. Briefly: Antiprotozoal activity against axenic amastigote stage of Leishmania donovani MHOM-ET-67/L82 by alamar-blue assay. The format is functional, organism-based.
The nature of series [3]: (§1) Cytotoxicity against rat L6 cells. To be noted: L6 cells. Type of series: cell-based.
In the next series the test system is Trypanosoma cruzi. Nature of the series: Antiprotozoal activity against intracellular amastigote stage of Trypanosoma cruzi Tulahuen C4 by colorimetric assay. The format is functional, organism-based.
The test system of series [4] is Plasmodium falciparum. Briefly: Antiprotozoal activity against intraerythrocytic stage of chloroquine-sensitive Plasmodium falciparum NF54 by [3H]hypoxanthine incorporation assay. The format is functional, organism-based.
Series [5] is described as follows: Selectivity index, ratio of CC50 for rat L6 cells to IC50 for bloodstream form of Trypanosoma brucei rhodesiense STIB900. Type of series: functional.
The nature of series [6]: Binding affinity to fish sperm DNA assessed as hypochromicity after 1 min by UV-Vis spectrophotometry. Also on record: concentration or dose not given beside the values.
A short description of series [7]: Selectivity index, ratio of CC50 for rat L6 cells to IC50 for Plasmodium falciparum NF54. The format is functional.
The subject of series [8] is Hyperoartia. Briefly: Binding affinity to fish sperm DNA by circular dichroism spectroscopy. For orientation: Circular dichroism is the unequal absorption of left and right circularly polarised light.
The test system of series [9] is Trypanosoma brucei rhodesiense. Nature of the series: Antitrypanosomal activity against Trypanosoma brucei rhodesiense STIB900 infected in NMRI mouse assessed as cure at 20 mg/kg, ip administered for 4 days. The format is functional, organism-based. More on the design: dose 20 mg/kg.
For series [10], the system named is Trypanosoma brucei rhodesiense. Nature of the series: Antitrypanosomal activity against Trypanosoma brucei rhodesiense STIB900 infected in NMRI mouse assessed as time duration by measuring mean day of relapse at 20 mg/kg, ip administered for 4 days. The format is functional. The settings on record: route intraperitoneal.
The subject of series [11] is Trypanosoma brucei rhodesiense. Nature of the series: Antitrypanosomal activity against Trypanosoma brucei rhodesiense STIB900 infected in NMRI mouse assessed as time duration by measuring mean day of relapse at 5 mg/kg, ip administered for 4 days. The format is functional. The settings on record: route intraperitoneal.
Another series relates to Mus musculus. Nature of the series: Toxicity in NMRI mouse infected with Trypanosoma brucei rhodesiense STIB900 at 20 mg/kg, ip administered for 4 days. Also on record: dose 20 mg/kg, route intraperitoneal. The format is organism-based. To be noted: in vivo, 96 h.
Series [12] concerns Hyperoartia. Nature of the series: Binding affinity to fish sperm DNA assessed as reduction in positive band at compound/DNA ratio 1 to 2 by circular dichroism spectroscopy.
In series [13] the test system is Trypanosoma brucei rhodesiense. Briefly: Antitrypanosomal activity against Trypanosoma brucei rhodesiense STIB900 infected in NMRI mouse assessed as cure at 5 mg/kg, ip administered for 4 days. The format is functional, organism-based. Also on record: dose 5 mg/kg.
Series [14] has as its system Hyperoartia. Nature of the series: Binding affinity to fish sperm DNA assessed as weak negative band at compound/DNA ratio 1 to 2 by circular dichroism spectroscopy.
Series [15] deals with Hyperoartia. Nature of the series: Binding affinity to fish sperm DNA assessed as positive band of unvarying intensity at compound/DNA ratio 0.5 to 0.6 by circular dichroism spectroscopy.
Series [16] is described as follows: Selectivity index, ratio of CC50 for rat L6 cells to IC50 for Plasmodium falciparum K1. The format is functional.
Series [17] deals with Trypanosoma brucei rhodesiense. Briefly: Antitrypanosomal activity against Trypanosoma brucei rhodesiense STIB900 infected in NMRI mouse assessed as time duration by measuring mean day of relapse at 50 mg/kg, po administered for 4 days. Type of series: functional.
Series [18] has as its system Trypanosoma brucei rhodesiense. Briefly: Antitrypanosomal activity against Trypanosoma brucei rhodesiense STIB900 infected in NMRI mouse assessed as cure at 50 mg/kg, po administered for 4 days. Type of series: functional, organism-based. More on the design: dose 50 mg/kg.
In a further series the test system is L6. Described as §1. The format is cell-based. To be noted: l6.

Values joined by “and” are separate entries in the source; they are usually repeats but may differ in a detail not shown here. Identical values can stand only once. Active and inactive are the calls of the source. No cut-off for these calls is given here.

In the case of `Nc1ccc2c(=O)c3cc([N+](=O)[O-])ccc3[nH]c2c1`, the IC50 in the series with Plasmodium falciparum [1] turned out to be 34 µM; in [2] (Trypanosoma brucei, STIB900), 67 µM; in the series with Leishmania donovani, 291 µM; with Trypanosoma cruzi, 279 µM. In series [3], this compound yielded a CC50 of 147 µM.

Take `Cn1c2ccc(NC3=NCCN3)cc2c(=O)c2ccc(NC3=NCCN3)cc21.O=C(O)C(F)(F)F.O=C(O)C(F)(F)F`: the 50% inhibitory concentration (IC50) was 0.56 µM in the series on Plasmodium falciparum [4] (Plasmodium falciparum, NF54) and 0.008 µM in [2] (Trypanosoma brucei, STIB900). For the same compound, the “Ratio CC50/IC50” value in [5] is 12287; in series [7], 175. Also, the Activity in series [6] turned out to be 50%. The midpoint of cytotoxicity in series [3], the CC50, lay at 98 µM.

Regarding `Cl.Cl.O=c1c2ccc(NC3=NCCN3)cc2[nH]c2ccc(NC3=NCCN3)cc12`, the 50% inhibitory concentration (IC50) was 0.83 µM in the series on Plasmodium falciparum [4] (Plasmodium falciparum, NF54); 0.007 µM in series [2] (Trypanosoma brucei, STIB900); 73 µM with Leishmania donovani; > 230 µM in the series on Trypanosoma cruzi. Besides, the result (in the series with Hyperoartia [8]; in series [9]) was Active. The results for the “Ratio CC50/IC50” value in [5] and in series [7] were 15257 and 128, respectively. In addition, in [6], the Activity amounted to 47%. Moreover, in [3], the CC50 was 107 µM. In [10], the Time is >50 days.

With `Cl.Cl.O=c1c2ccc(NC3=NCCN3)cc2[nH]c2cc(NC3=NCCN3)ccc12`, the Time in series [11] worked out at 14 days. The IC50 is 0.25 µM with Plasmodium falciparum [4], 0.062 µM in [2], 113 µM with Leishmania donovani and > 230 µM with Trypanosoma cruzi. The Activity result in the series with Mus musculus was “Non-toxic”. Also, the “Ratio CC50/IC50” value came out at 2210 in series [5] and 546 in [7]. This compound had a cytotoxic concentration (CC50) in series [3] of 137 µM.

In the case of `COc1cc([C@@H]2c3cc4c(cc3[C@H](O)[C@H]3COC(=O)[C@H]23)OCO4)cc(OC)c1OC` [PODOFILOX], in series [3], the midpoint of cytotoxicity, the CC50, lay at 0.012 µM.

In turn, `CCCCCCCCCCCCCCCCOP(=O)([O-])OCC[N+](C)(C)C` [MILTEFOSINE] showed an IC50 with Leishmania donovani of 0.45 µM.

As to `Nc1ccc2[nH]c3ccc([N+](=O)[O-])cc3c(=O)c2c1`, the half-maximal inhibitory concentration (IC50) with Plasmodium falciparum [1] worked out at 49 µM; in [2] (Trypanosoma brucei, STIB900), 19.5 µM; in the series on Leishmania donovani it was 77 µM; in the series with Trypanosoma cruzi, 287 µM. The compound further came in with a CC50 in series [3] of 186 µM.

Consider `Nc1ccc2[nH]c3ccc(N)cc3c(=O)c2c1`, for which the IC50 in the series on Plasmodium falciparum [1] came out at 2.5 µM; in series [2] (Trypanosoma brucei, STIB900) it was 2.9 µM; with Leishmania donovani, 321 µM; in the series with Trypanosoma cruzi, 149 µM. In [3], this compound had a CC50 of 75 µM.

As for `Nc1cccc(Nc2ccc([N+](=O)[O-])cc2C(=O)O)c1`, the IC50 in the series on Plasmodium falciparum [1] was determined as 70 µM; in [2] (Trypanosoma brucei, STIB900), 124 µM; in the series with Leishmania donovani it was 61 µM; with Trypanosoma cruzi, 271 µM. In addition, the midpoint of cytotoxicity in series [3], the CC50, lay at 266 µM.

As to `O=c1c2ccc(NC3=NCCN3)cc2[nH]c2cc(NC3=NCCN3)ccc12`, the result in the series with Hyperoartia [8], with Hyperoartia [12], in the series on Hyperoartia [14] and in the series on Hyperoartia [15] was Active. The result in [13] was inactive. The Activity in series [6] is 40% and 35%.

Turning to `Nc1ccc2c(=O)c3cc(N)ccc3[nH]c2c1`, the 50% inhibitory concentration (IC50) was 4.8 µM in the series with Plasmodium falciparum [1]; 19.2 µM in series [2] (Trypanosoma brucei, STIB900); 288 µM in the series on Leishmania donovani; 269 µM in the series on Trypanosoma cruzi. This compound came in with a half-maximal cytotoxic concentration (CC50) in series [3] of 23 µM.

With `O=C(O)C(F)(F)F.O=C(O)C(F)(F)F.O=C1c2ccc(NC3=NCCN3)cc2C(=O)c2ccc(NC3=NCCN3)cc21`, the outcome (with Hyperoartia [8]; in [9]) was Active. The IC50 in the series on Plasmodium falciparum [1] came to 0.06 µM; in [2] (Trypanosoma brucei, STIB900) it was 2.3 µM; in the series with Leishmania donovani, 145 µM; with Trypanosoma cruzi, 104 µM. Also, the Activity in [6] worked out at 46%. The same compound yielded a cytotoxic concentration (CC50) in series [3] of 75 µM. Besides, the “Ratio CC50/IC50” value in series [16] amounted to 1229.

On to `CC(C)(C)OC(=O)N1CCN(C(=O)OC(C)(C)C)C1=Nc1ccc2[nH]c3ccc(N=C4N(C(=O)OC(C)(C)C)CCN4C(=O)OC(C)(C)C)cc3c(=O)c2c1`, for which the IC50 in the series on Plasmodium falciparum [1] is 33 µM; in series [2] (Trypanosoma brucei, STIB900) it was 2.2 µM; in the series with Leishmania donovani it was > 127 µM; in the series with Trypanosoma cruzi, 50 µM. This compound also returned a CC50 in series [3] of 73 µM.

Take `Nc1ccc(Nc2ccc([N+](=O)[O-])cc2C(=O)O)cc1`: the IC50 with Plasmodium falciparum [1] was 52 µM; in series [2] (Trypanosoma brucei, STIB900) it was 55 µM; in the series with Leishmania donovani it was 23 µM; with Trypanosoma cruzi, 292 µM. The CC50 in series [3] is > 365 µM.

For the compound `Cl.Cl.O=c1c2cc(NC3=NCCN3)ccc2[nH]c2ccc(NC3=NCCN3)cc12`, the Time is 22 days in series [17] and >45.5 days in series [10]. Further, in series [9], the outcome was Active. Further, the “Ratio CC50/IC50” value is on record as >3333 in [5] and >666 in series [16]. Also, the IC50 in the series with Plasmodium falciparum [1] was 0.34 µM; in [2] (Trypanosoma brucei, STIB900), 0.069 µM; in the series with Leishmania donovani, 177 µM; with Trypanosoma cruzi, > 230 µM. Moreover, the outcome in series [18] was inactive. The Activity in series [6] came out at 49%. Moreover, the CC50 in series [3] is > 230 µM.

Consider `O=C(O)C(F)(F)F.O=C(O)C(F)(F)F.O=c1c2ccc(NC3=NCCN3)cc2[nH]c2cc(NC3=NCCN3)ccc12`, for which the IC50 in the series with Plasmodium falciparum [4] was 0.09 µM; in [2] (Trypanosoma brucei, STIB900), 0.06 µM. For the same compound, the “Ratio CC50/IC50” value in series [5] is 1647; in series [7] it was 1149. In the series with L6, this compound yielded a CC50 of 99 µM.

With `Cn1c2ccc(NC3=NCCN3)cc2c(=O)c2cc(NC3=NCCN3)ccc21.O=C(O)C(F)(F)F.O=C(O)C(F)(F)F`, the IC50 with Plasmodium falciparum [4] (Plasmodium falciparum, NF54) amounted to 0.22 µM; in series [2] (Trypanosoma brucei, STIB900), 0.007 µM. The figures for the “Ratio CC50/IC50” value in series [5] and in [7] were 14843 and 468, respectively. The Activity in [6] is 48%. For the same compound, in series [3], the CC50 was determined as 104 µM.

As a reminder, the IC50 is the point on the concentration scale where inhibition reaches its midpoint. By CC50 is commonly meant the concentration giving 50% cytotoxicity.

Values taken from ChEMBL document CHEMBL3414460, “Antiprotozoal activity and DNA binding of dicationic acridones” (J Med Chem, 2015).
